Laboratory results taken from patent publication US11407736B2 (priority 2019, dated 2022).
Structures can show the parent of a compound that is named as a salt. Where two headings read alike, the source gives them in different places.

Key:
L929 cells = test: L929 cell necroptosis assay (TNFa + zVAD, CellTiter-Glo); assay type: cell-based, murine; conditions: TNFa + zVAD, read-out: L929-CTG-recovery, L929, TNFa + zVAD (IC50)
Method in brief: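 Murine L929 cells, plated 18 h beforehand at 10K cells/well in RPMI 1640 with 10% FBS, were switched to medium containing 40 uM zVAD-fmk and given compound from 4-fold serial dilutions. Viability after 18 h of TNFa stimulation at 37° C was read by CellTiter-Glo luminescence.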

U937 cells = test: U937 cell necroptosis assay (TNFa + zVAD, CellTiter-Glo); assay type: cell-based, human; conditions: TNFa + zVAD, read-out: U937 Zvad TNF CTG Recovery, U937, TNFa + zVAD (IC50)
Method in brief: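 Human U937 and murine L929 cells in RPMI 1640/10% FBS were pre-incubated 1 h at 37 °C with serially diluted compound plus zVAD-fmk (U937 plated with 60 uM, L929 medium with 40 uM), then stimulated with 2 ng/mL TNFa (final). Viability read by CellTiter-Glo luminescence after 18 h.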

RIPK1 = RIPK1 (Homo sapiens (Human), UniProt Q13546); test: RIPK1 ADP-Glo biochemical kinase assay
Protocol: The final reaction volume was 5.0ul.
Adding 5 μl of ADP-Glo™ terminated the reaction.

[1] = Homo sapiens, U-937, U937 cells
[2] = read-out: RIPK1 ADP-Glo Kinase (IC50)

Sequence of RIPK1 (Q13546 whole entry, species assumed): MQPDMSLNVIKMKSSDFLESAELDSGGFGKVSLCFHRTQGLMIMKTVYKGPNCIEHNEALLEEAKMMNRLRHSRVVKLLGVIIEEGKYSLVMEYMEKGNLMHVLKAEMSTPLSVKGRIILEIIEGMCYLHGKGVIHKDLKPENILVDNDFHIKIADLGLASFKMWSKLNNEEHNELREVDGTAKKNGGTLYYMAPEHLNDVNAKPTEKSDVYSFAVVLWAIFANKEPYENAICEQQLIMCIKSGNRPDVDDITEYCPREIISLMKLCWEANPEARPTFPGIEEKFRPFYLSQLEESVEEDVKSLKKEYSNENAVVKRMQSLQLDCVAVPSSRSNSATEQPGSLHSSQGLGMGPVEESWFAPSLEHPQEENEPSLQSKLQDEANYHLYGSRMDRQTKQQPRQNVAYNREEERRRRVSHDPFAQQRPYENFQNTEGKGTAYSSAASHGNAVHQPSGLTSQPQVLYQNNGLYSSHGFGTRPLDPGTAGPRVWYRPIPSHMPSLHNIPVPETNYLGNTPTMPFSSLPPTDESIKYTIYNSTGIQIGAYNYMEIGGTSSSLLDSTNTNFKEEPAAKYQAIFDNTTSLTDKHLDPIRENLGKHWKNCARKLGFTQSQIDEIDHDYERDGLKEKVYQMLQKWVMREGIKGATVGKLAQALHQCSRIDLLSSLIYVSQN

Row | Structure (SMILES) | IC50 (L929 cells; Mus musculus, L929, L929 cells) [nM] | IC50 (U937 cells; [1]) [nM] | IC50 (RIPK1; [2]) [nM] | IC50 (L929 cells; L929 cells) [nM] | IC50 (U937 cells; U937 cells) [nM] | other results
1 | CN1C(=O)[C@@H](NC(=O)c2cc(OC3CCCC3)ccn2)COc2ccc(C#CC3(O)COC3)cc21 [Compound I-157, (S)-4-(cyclopentyloxy)-N-(7-((3-hydroxyoxetan-3-yl)ethynyl)-5-methyl-4-oxo-2,3,4,5-tetrahydrobenzo[b][1,4]oxazepin-3-yl)picolinamide] | 5160 | 25.5 | 31.6 |  |  | 
2 | CN1CCN(C(C)(C)C#Cc2ccc3c(c2)N(C)C(=O)[C@@H](NC(=O)c2cc(Oc4ccccc4)ccn2)CO3)CC1 [Compound I-158, (S)—N-(5-methyl-7-(3-methyl-3-(4-methylpiperazin-1-yl)but-1-yn-1-yl)-4-oxo-2,3,4,5-tetrahydrobenzo[b][1,4]oxazepin-3-yl)-4-phenoxypicolinamide] | 1640 | 9.5 |  |  |  | IC50 (RIPK1): 14.7 nM
3 | COC(=O)C#Cc1ccc2c(c1)N(C)C(=O)[C@@H](NC(=O)c1cc(Oc3ccccc3)ccn1)CO2 [Compound I-159, Methyl (S)-3-(5-methyl-4-oxo-3-(4-phenoxypicolinamido)-2,3,4,5-tetrahydrobenzo[b][1,4]oxazepin-7-yl)propiolate] | 16100 | 21 | 17.5 |  |  | 
4 | CC(C)[C@H](N)C(=O)OC1(C#Cc2ccc3c(c2)N(C)C(=O)[C@@H](NC(=O)c2cc(Oc4ccccc4)ccn2)CO3)COC1 [Compound I-160, 3-(((S)-5-methyl-4-oxo-3-(4-phenoxypicolinamido)-2,3,4,5-tetrahydrobenzo[b][1,4]oxazepin-7-yl)ethynyl)oxetan-3-yl L-valinate] | 44.2 | 0.9 | 25.3 |  |  | 
5 | CC(C)[C@H](N)C(=O)OC1(C#Cc2ccc3c(c2)N(C)C(=O)[C@@H](NC(=O)c2cc(Oc4ccccc4)ccn2)CO3)COC1 [Compound I-164, 3-4(S)-5-methyl-4-oxo-3-(4-phenoxypicolinamido)-2,3,4,5-tetrahydrobenzo[b][1,4]oxazepin-7-yl)ethynyl)oxetan-3-yl L-valinate benzenesulfonic acid salt] |  |  | 71.7 | 31.9 | 0.7 | 
6 | CN1C(=O)[C@@H](NC(=O)c2cc(Oc3ccccc3)ccn2)COc2ccc(C#CC3(OC(=O)CCC(=O)O)COC3)cc21 [Compound I-165, (S)-4-((3-((5-methyl-4-oxo-3-(4-phenoxypicolinamido)-2,3,4,5-tetrahydrobenzo[b][1,4]oxazepin-7-yl)ethynyl)oxetan-3-yl)oxy)-4-oxobutanoic acid 2-amino-2-(hydroxymethyl)propane-1,3-diol salt] |  |  | 11.2 | 47.1 | 0.9 | 
7 | CN1C(=O)[C@@H](NC(=O)c2cc(Oc3ccccc3)ccn2)COc2ccc(C#CC(C)(C)N)cc21 [Compound I-167, (S)—N-(7-(3-amino-3-methylbut-1-yn-1-yl)-5-methyl-4-oxo-2,3,4,5-tetrahydrobenzo[b][1,4]oxazepin-3-yl)-4-phenoxypicolinamide hydrochloride] |  |  |  |  |  | IC50 (L929 cells; L929 cells, hydrochloride): 1210 nM; IC50 (U937 cells; U937 cells, hydrochloride): 5.3 nM; IC50 (RIPK1; hydrochloride, read-out: RIPK1 ADP-Glo Kinase (IC50)): 17.5 nM
8 | CN1C(=O)[C@@H](NC(=O)n2cc(Cc3ccc(F)cc3)cn2)COc2ccc(C#CC3(O)CCOCC3)cc21 [Compound I-175, (S)-4-(4-fluorobenzyl)-N-(7-((4-hydroxytetrahydro-2H-pyran-4-yl)ethynyl)-5-methyl-4-oxo-2,3,4,5-tetrahydrobenzo[b][1,4]oxazepin-3-yl)-1H-pyrazole-1-carboxamide] | 107 | 9 | 27.8 |  |  | 
9 | CC(=O)N1CC(F)(C#Cc2ccc3c(c2)N(C)C(=O)[C@@H](NC(=O)c2cc(Oc4ccccc4)ccn2)CO3)C1 [Compound I-191, (S)—N-(7-((1-acetyl-3-fluoroazetidin-3-yl)ethynyl)-5-methyl-4-oxo-2,3,4,5-tetrahydrobenzo[b][1,4]oxazepin-3-yl)-4-phenoxypicolinamide] | 21.5 | 0.3 | 19.7 |  |  | 
10 | CN[C@@H](C)C(=O)OC1(C#Cc2ccc3c(c2)N(C)C(=O)[C@@H](NC(=O)c2cc(Oc4ccccc4)ccn2)CO3)COC1 [Compound I-193] |  |  | 55.3 | 7060 | 361 | 
